The text below walks through data of patent publication US9718824B2, “Solid forms comprising 7-(6-(2-hydroxypropan-2-yl)pyridin-3-yl)-1-((trans)-4-methoxycyclohexyl)-3,4-dihydropyrazino[2,3-b]pyrazin-2(1H)-one, and a coformer, compositions and methods of use thereof” (Signal Pharmaceuticals, LLC, priority 2014, dated 2017).

The data set in a line: Physical stability under accelerated ageing conditions, re-analysis by XRPD and digital imaging. It is filed as physicochemical. As to conditions: 40° C. and 75% RH, 48 hours. As for the experimental part: AAC: Accelerated aging conditions (48 hours at 40° C. and 75% RH)
Physical stability of all samples was studied by exposing all solids to accelerated ageing conditions (40° C./75% RH for 48 hours) followed by re-analysis by XRPD and digital imaging. After exposure to accelerated ageing conditions, all solids were re-classified on the basis of their new XRPD patterns. The assignment of solid forms was primarily based on the XRPD analysis.
Subsequently, all solids were placed in a climate chamber at 40° C. and 75% RH for […] and again analyzed by XRPD and digital imaging.
Compound 1 free base was solid dosed in 1.8 mL scale experimental vials. The coformer was added at a ratio of 1:1.1 (Compound 1:coformer). The solvent and a stirring bar were added to the vials. […] After the solids were separated from the liquids, the solids were analyzed wet by XRPD and digital imaging. […] The solids obtained were then analyzed by XRPD and digital imaging. Subsequently, the solids were incubated in a climate chamber at 40° C. and 75% RH for 48 hours and again analyzed by XRPD and digital imaging.
In these experiments 4 coformers and 6 solvents were tested (see Table 10). […] All obtained solids were then analyzed by XRPD and digital imaging. Subsequently, the solids were placed in a climate chamber at 40° C. and 75% RH for 3 days after which they were analyzed by XRPD and digital imaging again. […]

In the case of `COC1CCC(N2C(=O)CNc3ncc(-c4ccc(C(C)(C)O)nc4)nc32)CC1.O=C(O)C=CC(=O)O` (stereo not shown) [Form 1], the “Physical stability at accelerated aging conditions (solid form by XRPD)” value is “stable”.
